pIC50: −log10 of the molar value.

The assay deals with Phosphoglycerate kinase (Trypanosoma brucei). As to the kind of experiment: evaluated for the inhibition of Trypanosoma brucei Phosphoglycerate kinase (PGK).
With `CCCNc1nc(N)c2ncn([C@@H]3O[C@H](CO)[C@@H](O)[C@H]3O)c2n1`, the IC50 was found to be 1500 µM.
The same measure, in the same setting: in the case of `Nc1nc(NCC(O)c2ccccc2)nc2c1ncn2[C@@H]1O[C@H](CO)[C@@H](O)[C@H]1O` (stereo partly specified) it was 1400 µM.
On the same count and under the same terms, with `Nc1nc(NCc2ccccc2)nc2c1ncn2C1O[C@H](CO)[C@@H](O)[C@H]1O` (stereo partly specified) the figure was 3500 µM.
The same measure, in the same setting: with `CCCCCNc1ncnc2c1ncn2[C@@H]1O[C@H](CO)[C@@H](O)[C@H]1O` the figure was 3000 µM; with `NCCNc1ncnc2c1ncn2C1O[C@H](CO)[C@@H](O)[C@H]1O` (stereo partly specified), 2500 µM; with `Nc1nc(NC2CCCC2)c2ncn(C3O[C@H](CO)[C@@H](O)[C@H]3O)c2n1` (stereo partly specified), 1500 µM.
`OC[C@H]1OC(n2cnc3c(NCCc4ccccc4)nc(NCCc4ccccc4)nc32)[C@H](O)[C@@H]1O` (stereo partly specified) registered an IC50 of 30 µM.
`Nc1nc(NCCCCNc2nc(N)nc3c2ncn3C2O[C@H](CO)[C@@H](O)[C@H]2O)c2ncn(C3O[C@@H](CO)[C@H](O)[C@@H]3O)c2n1` (stereo partly specified) displayed a half-maximal inhibitory concentration (IC50) of 750 µM.
The same measure, in the same setting: with `Nc1nc(NCCCNc2nc(N)nc3c2ncn3C2O[C@H](CO)[C@@H](O)[C@H]2O)c2ncn(C3O[C@@H](CO)[C@H](O)[C@@H]3O)c2n1` (stereo partly specified) the figure was 50 µM; with `COc1ccc(CCNc2nc(N)nc3c2ncn3C2O[C@H](CO)[C@@H](O)[C@H]2O)cc1` (stereo partly specified), 1500 µM.
Same read-out and setting: in the case of `Nc1nc(NCCc2ccc(Cl)cc2)c2ncn(C3O[C@H](CO)[C@@H](O)[C@H]3O)c2n1` (stereo partly specified) it was 1400 µM.
The same measure, in the same setting: in the case of `Nc1nc(NCCNc2nc(N)nc3c2ncn3C2O[C@H](CO)[C@@H](O)[C@H]2O)c2ncn(C3O[C@@H](CO)[C@H](O)[C@@H]3O)c2n1` (stereo partly specified) it was 500 µM.
Compound `C#CCNc1nc(N)nc2c1ncn2C1O[C@H](CO)[C@@H](O)[C@H]1O` (stereo partly specified) had a 50% inhibitory concentration (IC50) of 1500 µM. This IC50 lies about 3-fold higher than the previous one.
With `CCCCCNc1nc(N)nc2c1ncn2C1O[C@H](CO)[C@@H](O)[C@H]1O` (stereo partly specified), the concentration for half-maximal inhibition (IC50) is 2000 µM.
The same measure, in the same setting: in the case of `Nc1nc(NCCc2cccc(Cl)c2)c2ncn(C3O[C@H](CO)[C@@H](O)[C@H]3O)c2n1` (stereo partly specified) it was 1200 µM.
Same read-out and setting: in the case of `OC[C@H]1OC(n2cnc3c(NCCc4ccccc4)nc(NCCc4ccc(O)cc4)nc32)[C@H](O)[C@@H]1O` (stereo partly specified) it was 100 µM; in that of `Nc1nc(NCCc2cccc(O)c2)c2ncn(C3O[C@H](CO)[C@@H](O)[C@H]3O)c2n1` (stereo partly specified), 250 µM; in that of `OC[C@H]1OC(n2cnc3c(NCCc4ccc(O)cc4)nc(NCCc4ccccc4)nc32)[C@H](O)[C@@H]1O` (stereo partly specified), 100 µM.
Still for that read-out and setting: with `Cc1ccc(CNc2nc(N)c3ncn(C4O[C@H](CO)[C@@H](O)[C@H]4O)c3n2)cc1` (stereo partly specified) the figure was 1500 µM; with `COc1cccc(CCNc2nc(N)nc3c2ncn3C2O[C@H](CO)[C@@H](O)[C@H]2O)c1` (stereo partly specified), 1900 µM; with `CC(CNc1nc(N)nc2c1ncn2C1O[C@H](CO)[C@@H](O)[C@H]1O)c1ccccc1` (stereo partly specified), 2900 µM.
In turn, `CCNc1nc(N)nc2c1ncn2C1O[C@H](CO)[C@@H](O)[C@H]1O` (stereo partly specified) returned a half-inhibitory concentration (IC50) of 3500 µM.
Still for that read-out and setting: with `Nc1ccc(CCNc2nc(N)nc3c2ncn3C2O[C@H](CO)[C@@H](O)[C@H]2O)cc1` (stereo partly specified) the figure was 250 µM; with `C=CCNc1nc(N)nc2c1ncn2C1O[C@H](CO)[C@@H](O)[C@H]1O` (stereo partly specified), 3000 µM.
The compound `Cc1cccc(CNc2nc(N)nc3c2ncn3C2O[C@H](CO)[C@@H](O)[C@H]2O)c1` (stereo partly specified) had a concentration for half-maximal inhibition (IC50) of 400 µM.
On the same count and under the same terms, in the case of `Cc1ccccc1CNc1nc(N)c2ncn(C3O[C@H](CO)[C@@H](O)[C@H]3O)c2n1` (stereo partly specified) it was 1500 µM; in that of `Nc1nc(NCc2ccccc2Cl)nc2c1ncn2C1O[C@H](CO)[C@@H](O)[C@H]1O` (stereo partly specified), 2000 µM.
On the same count and under the same terms, with `CC(Nc1nc(N)nc2c1ncn2C1O[C@H](CO)[C@@H](O)[C@H]1O)c1ccccc1` (stereo partly specified) the figure was 2900 µM.
In turn, `Nc1nc(NCCc2ccccc2Cl)c2ncn(C3O[C@H](CO)[C@@H](O)[C@H]3O)c2n1` (stereo partly specified) displayed an IC50 of 1900 µM.
In the case of `Nc1nc(NCc2cccc(Cl)c2)nc2c1ncn2C1O[C@H](CO)[C@@H](O)[C@H]1O` (stereo partly specified), the IC50 is 800 µM.
Still for that read-out and setting: with `Nc1nc(NCCc2ccc(O)c(O)c2)c2ncn(C3O[C@H](CO)[C@@H](O)[C@H]3O)c2n1` (stereo partly specified) the figure was 250 µM; with `Nc1nc(NCCc2ccc(O)cc2)nc2c1ncn2C1O[C@H](CO)[C@@H](O)[C@H]1O` (stereo partly specified), 500 µM; with `Cc1cccc(CNc2nc(N)c3ncn(C4O[C@H](CO)[C@@H](O)[C@H]4O)c3n2)c1` (stereo partly specified), 1500 µM.
On the same count and under the same terms, in the case of `Nc1nc(NCCc2ccccc2)c2ncn(C3O[C@H](CO)[C@@H](O)[C@H]3O)c2n1` (stereo partly specified) it was 200 µM.
The same measure, in the same setting: in the case of `Nc1nc(NCc2ccc(Cl)cc2)nc2c1ncn2C1O[C@H](CO)[C@@H](O)[C@H]1O` (stereo partly specified) it was 1400 µM; in that of `Nc1nc(NC2CCCCCC2)c2ncn(C3O[C@H](CO)[C@@H](O)[C@H]3O)c2n1` (stereo partly specified), 2500 µM; in that of `NCCCNc1nc(N)nc2c1ncn2C1O[C@H](CO)[C@@H](O)[C@H]1O` (stereo partly specified), 4000 µM.
In the case of `Nc1nc(NCc2ccco2)c2ncn(C3O[C@H](CO)[C@@H](O)[C@H]3O)c2n1` (stereo partly specified), the half-maximal inhibitory concentration (IC50) came to 1500 µM.
The compound `Nc1nc(NCc2cccc3ccccc23)c2ncn(C3O[C@H](CO)[C@@H](O)[C@H]3O)c2n1` (stereo partly specified) had an IC50 of 1900 µM.
`CCCCNc1nc(N)nc2c1ncn2C1O[C@H](CO)[C@@H](O)[C@H]1O` (stereo partly specified): the IC50 stood at 900 µM.
`Nc1nc(NCc2ccco2)nc2c1ncn2C1O[C@H](CO)[C@@H](O)[C@H]1O` (stereo partly specified) returned an IC50 of 1200 µM. The IC50 values of the last two compounds are within 1.5-fold of each other.
Still for that read-out and setting: in the case of `COc1ccccc1CCNc1nc(N)nc2c1ncn2C1O[C@H](CO)[C@@H](O)[C@H]1O` (stereo partly specified) it was 1800 µM.
`Nc1nc(NCc2ccccc2)c2ncn(C3O[C@H](CO)[C@@H](O)[C@H]3O)c2n1` (stereo partly specified) gave an IC50 of 600 µM.
On the same count and under the same terms, in the case of `Nc1nc(NCCc2ccc(Cl)cc2Cl)nc2c1ncn2C1O[C@H](CO)[C@@H](O)[C@H]1O` (stereo partly specified) it was 600 µM; in that of `Nc1nc(NCCc2ccccc2Cl)nc2c1ncn2C1O[C@H](CO)[C@@H](O)[C@H]1O` (stereo partly specified), 2200 µM.
The same measure, in the same setting: with `Nc1nc(NCCCCCNc2nc(N)nc3c2ncn3C2O[C@H](CO)[C@@H](O)[C@H]2O)c2ncn(C3O[C@@H](CO)[C@H](O)[C@@H]3O)c2n1` (stereo partly specified) the figure was 1000 µM.
On to `CCCCNc1nc(N)c2ncn(C3O[C@H](CO)[C@@H](O)[C@H]3O)c2n1` (stereo partly specified), for which the IC50 was 1500 µM.
Compound `Cc1ccc(CCNc2nc(N)nc3c2ncn3C2O[C@H](CO)[C@@H](O)[C@H]2O)cc1` (stereo partly specified) gave a pIC50 of 2.70.
`Nc1nc(NCC2CCCCC2)c2ncn(C3O[C@H](CO)[C@@H](O)[C@H]3O)c2n1` (stereo partly specified) showed a 50% inhibitory concentration (IC50) of 2500 µM.
Turning to `COc1ccc(CNc2nc(N)c3ncn(C4O[C@H](CO)[C@@H](O)[C@H]4O)c3n2)cc1` (stereo partly specified), the IC50 turned out to be 1000 µM. Against the preceding compound, the IC50 is about 2.5-fold lower.
Same read-out and setting: with `Nc1nc(NC2CCCCCC2)nc2c1ncn2C1O[C@H](CO)[C@@H](O)[C@H]1O` (stereo partly specified) the figure was 3000 µM; with `CC(CNc1nc(N)c2ncn(C3O[C@H](CO)[C@@H](O)[C@H]3O)c2n1)c1ccccc1` (stereo partly specified), 3500 µM.
Still for that read-out and setting: in the case of `CCCNc1nc(N)nc2c1ncn2C1O[C@H](CO)[C@@H](O)[C@H]1O` (stereo partly specified) it was 3000 µM.
The same measure, in the same setting: with `Nc1nc(NCCCc2ccccc2)c2ncn(C3O[C@H](CO)[C@@H](O)[C@H]3O)c2n1` (stereo partly specified) the figure was 4000 µM; with `Nc1nc(NCC2CCCO2)nc2c1ncn2C1O[C@H](CO)[C@@H](O)[C@H]1O` (stereo partly specified), 800 µM; with `Nc1ccc(CCNc2nc(N)c3ncn(C4O[C@H](CO)[C@@H](O)[C@H]4O)c3n2)cc1` (stereo partly specified), 500 µM.
In turn, `COc1ccc(CCNc2nc(N)nc3c2ncn3C2O[C@H](CO)[C@@H](O)[C@H]2O)cc1O` (stereo partly specified) yielded an IC50 of 850 µM. This IC50 lies about 1.7-fold higher than the previous one.
In turn, `COc1ccccc1CNc1nc(N)c2ncn(C3O[C@H](CO)[C@@H](O)[C@H]3O)c2n1` (stereo partly specified) registered an IC50 of 1400 µM.
On the same count and under the same terms, with `COc1cc(CCNc2nc(N)nc3c2ncn3C2O[C@H](CO)[C@@H](O)[C@H]2O)ccc1O` (stereo partly specified) the figure was 1500 µM; with `Nc1nc(NCCc2ccc(O)cc2)c2ncn(C3O[C@H](CO)[C@@H](O)[C@H]3O)c2n1` (stereo partly specified), 130 µM.
On the same count and under the same terms, in the case of `Nc1nc(NCCCc2ccccc2)nc2c1ncn2C1O[C@H](CO)[C@@H](O)[C@H]1O` (stereo partly specified) it was 1800 µM.

Broadly, the IC50 is the concentration at which inhibition is half-maximal. Usually pIC50 stands for −log10 of the IC50, conventionally taken in molar units.

Values taken from ChEMBL document CHEMBL1133593 (J Med Chem, 2000).
